Here are results for three molecules from publication PMC8615521, “Mitochondria-Mediated Apoptosis of HCC Cells Triggered by Knockdown of Glutamate Dehydrogenase 1: Perspective for Its Inhibition through Quercetin and Permethylated Anigopreissin A” (Biomedicines, 2021).

For test [1], the target named is T1, GDH1 from bovine liver (glutamate dehydrogenase 1) (Bos taurus, UniProt P00366).
T1 construct: gene GLUD1; purified bovine liver GDH (Sigma Aldrich, Type II)
The test can be described thus: spectrophotometric NADH oxidation assay ([…] nm), reference inhibitor measured by the authors. It is filed as biochemical.

The target in test [2] is T1, GDH1 from bovine liver (glutamate dehydrogenase 1). The test can be described thus: spectrophotometric NADH oxidation assay ([…] nm), Lineweaver-Burk and secondary plots. It is filed as biochemical.
In test [3] the target is T2, hGDH1 (human glutamate dehydrogenase 1) (Homo sapiens, UniProt P00367).
T2 construct: gene GLUD1; GDH activity in HepG2 cellular extract
T2 sequence (P00367 54-558): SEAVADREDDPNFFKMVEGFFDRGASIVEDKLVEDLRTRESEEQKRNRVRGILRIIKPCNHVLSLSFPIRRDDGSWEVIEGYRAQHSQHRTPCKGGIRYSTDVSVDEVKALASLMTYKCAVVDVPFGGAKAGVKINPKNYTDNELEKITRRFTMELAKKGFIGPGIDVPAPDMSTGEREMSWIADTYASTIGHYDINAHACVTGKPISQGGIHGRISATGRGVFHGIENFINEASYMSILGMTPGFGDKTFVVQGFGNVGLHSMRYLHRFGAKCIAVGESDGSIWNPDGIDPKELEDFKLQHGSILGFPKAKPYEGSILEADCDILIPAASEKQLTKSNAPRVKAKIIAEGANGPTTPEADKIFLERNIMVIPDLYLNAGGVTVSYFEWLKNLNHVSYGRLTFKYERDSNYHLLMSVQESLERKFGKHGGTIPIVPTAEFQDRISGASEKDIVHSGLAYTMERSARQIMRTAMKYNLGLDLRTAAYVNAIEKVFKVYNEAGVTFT
The test is described as follows: GDH activity in HepG2 cell extract (NADH, […] nm). It is filed as cell-based. As to conditions: HepG2, read-out: % inhibition at 8 μM %.

T1 sequence (P00366 58-558): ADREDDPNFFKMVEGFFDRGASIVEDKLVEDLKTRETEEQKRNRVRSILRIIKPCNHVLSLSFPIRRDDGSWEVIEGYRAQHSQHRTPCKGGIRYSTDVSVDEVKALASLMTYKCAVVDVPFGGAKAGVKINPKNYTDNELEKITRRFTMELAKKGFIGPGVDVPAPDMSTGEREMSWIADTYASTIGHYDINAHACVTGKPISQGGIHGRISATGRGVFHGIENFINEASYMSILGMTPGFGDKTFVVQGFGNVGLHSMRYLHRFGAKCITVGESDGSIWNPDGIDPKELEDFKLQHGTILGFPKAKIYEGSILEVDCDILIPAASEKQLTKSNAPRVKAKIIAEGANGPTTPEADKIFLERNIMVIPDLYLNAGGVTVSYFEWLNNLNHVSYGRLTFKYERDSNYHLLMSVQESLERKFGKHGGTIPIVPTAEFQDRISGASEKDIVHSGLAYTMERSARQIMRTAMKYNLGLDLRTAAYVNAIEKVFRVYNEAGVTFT

The IC50 is the point on the concentration scale where inhibition reaches its midpoint. Low values mean greater potency, high ones weaker potency. `O=C(O[C@@H]1Cc2c(O)cc(O)cc2O[C@@H]1c1cc(O)c(O)c(O)c1)c1cc(O)c(O)c(O)c1` [EGCG, Epigallocatechin gallate]: the half-maximal inhibitory concentration (IC50) in test [1] is about 2 µM. A word on the Ki: it is the equilibrium dissociation constant of an inhibitor or competing ligand from its target. A lower Ki goes with higher affinity. Broadly, the inhibition is how much of the control response was suppressed. Consider `O=c1c(O)c(-c2ccc(O)c(O)c2)oc2cc(O)cc(O)c12` [quercetin], for which affinity in test [2] was put at a Ki of 9.2 µM. Moreover, the inhibition at 8 µM in test [3] was about 56%.

In turn, Permethylated Anigopreissin A [PAA] registered a Ki in test [2] of 10 µM. This lies in the double-digit micromolar range.
